What was measured:
[1] = test system: 87 potential unintended molecular targets; experiment: In vitro binding or activity against 87 potential unintended molecular targets; conditions: 100 nM, 500× the free plasma exposure (Cmax) of maximum in vivo efficacy
[2] = target: T1, IKZF1 (Mus musculus, UniProt Q03267); experiment: Ex vivo IKZF1 degradation in PBMC, mouse; assay type: cell-based; conditions: mouse cells
T1 construct: from tissue; host or cells: peripheral blood cells (PBMC) of mice, ex vivo
Experimental: IKZF1/3 are not degraded in mouse cells treated with thalidomide or its IMiD® analogs because of a single amino acid difference in mouse cereblon compared to human cereblon that causes steric hindrance and prevents recruitment of IKZF1/3. Ex vivo studies were performed in peripheral blood cells (PBMC) of mice, rats, dogs, and monkeys to identify relevant species for IND enabling-toxicity studies based on the degree of IKZF1 degradation by Compound 1. IKZF1 was not degraded in mouse or rat cells by Compound 1, thus, while rat could not be considered a pharmacologically relevant species for human risk assessment, it was chosen as the rodent species for toxicological studies because it is widely used in toxicity testing and a substantial historical toxicology database is available. […] Therefore, cynomolgus monkey was chosen for non-rodent toxicological studies.

[3] = target: cereblon-DDB1 (Homo sapiens, UniProt Q96SW2); experiment: Fluorescent polarization: probe displacement from purified cereblon-DDB1; assay type: binding; conditions: competition with Alexa-647 based fluorescence probe
Experimental: Columns 23 and 24 are reserved for 0% (5 nM probe) and 100% controls (protein at high concentration with 5 nM probe), respectively. […] Plates were read on an Envision plate reader with appropriate FP filter sets.

[4] = test system: NCIH929.1 cells; experiment: NCIH929.1 cell viability assay (CellTiter-Glo, GI50); assay type: cell-based; conditions: 96 hr
[5] = test system: NCI-H929 multiple myeloma tumors; experiment: NCI-H929 multiple myeloma xenograft, NOD SCID mice (Example 31); assay type: in vivo
Experimental: Compound 1 was administered QD (every day) orally (PO). […]
(§1) For the NCI-H929 cells, the xenograft study was conducted in female NOD SCID mice bearing NCI-H929 multiple myeloma tumors.
After the dosing period, tumor growth was monitored for 45 days. […] After the initial 21 days of dosing, all Compound 1 groups were monitored for tumor growth. The 10 μg/kg group was removed from study on 39. The 30 μg/kg group tumors began to regrow, and PO daily dosing resumed starting on day 40 for an additional 23 days. Statistical analysis was performed using two-way analysis of variance (ANOVA). Data are expressed as MTV±SEM.

[6] = Plasma PK and interconversion in monkeys; assay type: in vivo; conditions: monkey, Compound 1 60 μg/kg or 100 μg/kg PO
Experimental: Compound 1 was administered to a rat at a concentration of 30 mg/kg PO and monkeys at a concentration of either 60 μg/kg or 100 μg/kg PO. At the indicated timepoints shown in FIG. 25A and FIG. 25B, plasma samples were collected and the Cmax, half-life, and AUC0-inf were determined for both Compound 1 and a metabolite of Compound 1, Compound 14. The percent of Compound 14 was also determined (Table 13). PK values dose normalized to 1 mg/kg. FIG. 25A is a graph measuring the concentration of Compound 1 or Compound 14 over the course of 24 hours in monkeys administered 100 μg/kg or 60 μg/kg of Compound 1. FIG. 25B is a graph measuring the concentration of Compound 1 or Compound 14 over the course of 24 hours in a rat administered 30 mg/kg of Compound 1.

[7] = target: T2, cereblon-NanoLuc fusion protein in 293T cells (Homo sapiens, UniProt Q96SW2); experiment: In-cell cereblon competition (NanoBRET tracer displacement); assay type: cell-based; conditions: 2 hours at 37° C.; read-out: IC50, 50% of the tracer displaced
T2 construct: expressed in transfected cells; host or cells: 293T cells, lentiviral

[8] = target: T3, IKZF3 (Homo sapiens, UniProt Q96SW2+Q9UKT9); experiment: NCI-H929 xenograft pharmacodynamic and pharmacokinetic study (Example 40); assay type: in vivo, mice
T3 construct: from tissue; host or cells: NCI-H929 MM xenograft tumours in female NOD SCID mice

[9] = test system: RPMI-8226 multiple myeloma tumors; conditions: Combination
[10] = test system: HuT 102; experiment: Anti-proliferative activity, 96 hours; conditions: HuT-102, 96 h
[11] = test system: NCI-H929 multiple myeloma tumors; experiment: NCI-H929 multiple myeloma xenograft, NOD SCID mice (Example 13); assay type: in vivo
Experimental: Compound 1 efficacy in two multiple myeloma cell lines (NC-H929) and (RPMI-8226) was evaluated at four different doses: 3 μg/kg, 10 μg/kg, 30 μg/kg, and 100 μg/kg. Compound 1 was administered QD (every day) orally (PO). […]
as §1
Statistical analysis was performed using two-way analysis of variance (ANOVA). Data are expressed as MTV±SEM.

SMILES: O=C1CC[C@H](N2C(=O)c3cccc4c(Cc5ccc(CN6CCOCC6)cc5)ccc2c34)C(=O)N1 (single isomer, unassigned) [Compound 1]
- off-target inhibition [1]: no targets inhibited >50%
- IKZF1 degradation [2]: not degraded
- Kd [3]: 0.9 nM
- GI50 [4]: 0.0743 nM
- tumor volume versus pomalidomide 3000 μg/kg ([5]; 10, 30 and 100 μg/kg): reduced tumor volume more than pomalidomide
- Statistical Significance Compared to Vehicle ([5]; Dose Level (mg/kg) 10, PO QD): <0.0001
- Statistical Significance Compared to Vehicle ([5]; Dose Level (mg/kg) 30, PO QD): <0.0001
- Statistical Significance Compared to Vehicle ([5]; Dose Level (mg/kg) 100, PO QD): <0.0001
- AUC(0-inf) ([6]; dose normalized to 1 mg/kg): 1.28 µg·h/mL
- Cmax ([6]; dose normalized to 1 mg/kg): 0.083 µg/mL
- half-life ([6]; read-out: T ½ (converted)): 9 h
- IC50 [7]: 0.4 nM
- time for the IKZF3 level to reach 50% of its pretreatment level ([8]; NCI-H929 tumor model, single dose): more than 48 hours
- duration of plasma and tumor concentrations ([8]; dosed at a 10-fold lower dose than CC-92480): measurable plasma and tumor concentrations for longer than CC-92480
- Median Survival ([9]; Compound 1 10 μg/kg PO daily, Dexamethasone 5000 μg/kg IV once a week): 33
- Statistical Significance Compared to Vehicle ([9]; survival, Logrank, Compound 1 10 μg/kg, Dexamethasone 5000 μg/kg): 0.007
- IC50 [10]: 15.4 nM
- Statistical Significance Compared to Vehicle ([11]; 3 μg/kg PO QD): 0.04
- Statistical Significance Compared to Vehicle ([11]; 10 μg/kg PO QD): 0.0002
- Statistical Significance Compared to Vehicle ([11]; 30 μg/kg PO QD): 0.0004
- Statistical Significance Compared to Vehicle ([11]; 100 μg/kg PO QD): 0.0004
- tumor volume versus pomalidomide 3000 μg/kg ([11]; 3, 10, 30 and 100 μg/kg, NCI-H929 and RPMI-8226): reduced tumor volume more than pomalidomide

— patent US20230190760A1, “ADVANTAGEOUS THERAPIES FOR DISORDERS MEDIATED BY IKAROS OR AIOLOS” (C4 Therapeutics, Inc., priority 2020, published 2023)
